Assay results from patent US20240355418A1, “MULTIPLEX, TEMPORALLY RESOLVED MOLECULAR SIGNAL RECORDER AND RELATED METHODS” (University of Washington, priority 2021, published 2024).
Where “and” joins values, the source holds several entries; their conditions need not be identical. Identical values can stand only once.

What was measured:
Format in all cases: cell-based
HEK293T cells [1] = experiment: Screen of 48 3×TAPE constructs: efficiency and sequential error rate; conditions: for Sequential error rate (in words): 48 tested tapes
Description: In each of these 48 constructs, a 3×TAPE region was accompanied by a pegRNA-expressing cassette designed to target it with a 4-6 bp insertion (16 possible 2-bp barcodes followed by a 2-4 bp key sequence). HEK293T cells were transiently transfected with PE2-encoding plasmid and a pool of 48 pegRNA-by-3×TAPE constructs and harvested them after four days. The 3×TAPE region was PCR-amplified from genomic DNA and sequenced.
Two quantities were calculated for each 3×TAPE array: (1) efficiency, calculated by summing all edited reads and dividing by the total number of reads; and (2) sequential error rate, calculated by summing all edited reads inconsistent with sequential, directional editing and dividing by the total number of edited reads (FIG. 7B). […] Indeed, across the full experiment, a longer key sequence was associated with a lower sequential error rate (FIG. 7C). […] Performance characteristics were highly consistent when the experiment was repeated with integration rather than transient transfection of the constructs (FIG. 7E).

HEK293T cells [2] = experiment: DNA Typewriter: sequential prime editing of integrated TAPE-1 arrays, pegRNA pool + PE2, amplicon sequencing; conditions: for Overall editing rate: reads exhibiting any editing, of all reads: pegRNA pool + PE2, four days
From the text: To test this idea, DNA Tape (“TAPE-1”) was designed by modifying a spacer sequence previously shown to be highly amenable to prime editing by the PE2 enzyme (HEK293 target 3 or HEK3). In TAPE-1, a 3-bp key (GGA) is followed by one tandem array of a 14-bp monomer (TGATGGTGAGCACG) (SEQ ID NO: 57) that includes the PAM sequence (TGG) at positions 4-6. At the 5′-most end of the TAPE-1 array, the key sequence, the first 14-bp monomer, and the first 6 bases of the subsequent 14-bp monomer, collectively comprise an intact 20-bp spacer and PAM (FIG. 1A). A set of 16 pegRNAs was further designed to target TAPE-1, with each pegRNA programming a distinct 5-bp insertion (FIG. 1B). The first 2-bp of the insertion is unique to each of the 16 pegRNAs. The remaining 3-bp of the insertion corresponds to the key (GGA). The inventors reasoned that when a pegRNA/PE2-mediated insertion occurred at the active TAPE-1 site, it would: (1) record the identity of the pegRNA via the 2-bp portion of the insertion; (2) inactivate the current active site by disrupting its sequence; and (3) activate the next monomer along the array, as the newly inserted GGA key, together with the subsequent […], creates an intact 20-bp spacer and PAM. In the next iteration of genome editing, a pegRNA-mediated insertion to the second monomer would be recorded while also moving the type-guide to the third monomer, and then to the fourth, the fifth, and so on (FIG. 1C).
TAPE-1 arrays were synthesized and cloned with varying numbers of monomer units (2×TAPE-1, 3×TAPE-1, 5×TAPE-1), and stably integrated these arrays into the genome of HEK293T cells via the piggyBAC system. The resulting cells were transiently transfected with a pool of plasmids designed to express PE2 (pCMV-PE2-P2A-GFP; Addgene #132776) and sixteen pegRNAs, each programmed to insert an NNGGA barcode to TAPE-1, and harvested them after four days. The TAPE-1 region was PCR-amplified from genomic DNA and sequenced.
For each TAPE-1 array, the sequencing reads were categorized into those in which: (1) no editing occurred; (2) the observed pattern was consistent with sequential, directional editing; or (3) the observed pattern was inconsistent with sequential, directional editing (FIG. 1D-F; Table 1). […] However, within the set of reads showing edits, the data were overwhelmingly consistent with sequential, directional editing. For example, with 2×TAPE-1, the second monomer was edited in 22.8±1.7% of reads in which the first monomer was also edited (FIG. 1D). In contrast, the second monomer was only edited in 0.6% of reads in which the first monomer was not edited. […] Data obtained from 3×TAPE-1 and 5×TAPE-1 were also consistent with sequential genome editing. For example, 98.5% (3×TAPE-1) and 99.0% (5×TAPE-1) of reads that were edited at the second monomer were also edited at the first monomer, while 97.6% (3×TAPE-1) and 98.8% (5×TAPE-1) of reads that were edited at the third monomer were also edited at the first and second monomers (FIG. 1E-1F).
Table 1. Read counts and editing efficiencies for 2×TAPE-1, 3×TAPE-1, and 5×TAPE-1. Sequencing reads were grouped based on the observed editing pattern. For example, reads from 2×TAPE-1 array were categorized into four groups: (A) no edit at either TAPE-1 site (‘OO’); (B) 5-bp insertion at the first TAPE-1 site only (‘XO’); (C) 5-bp insertion at the second TAPE-1 site only (‘OX’); or (D) 5-bp insertions at both TAPE-1 sites (‘XX’). For reads from 5×TAPE-1 array, editing groups were simplified by categorizing directional and iterative editing pattern (OOOOO, XO, XXO, XXXO, XXXXO, and XXXXX) and the erroneous editing patterns (OX, NOX, NNOX, and NNNOX, where N can be either O or X). Editing efficiencies at each site were calculated as the fraction of reads with an edit at the site over the total number of reads in which the site had been activated via insertion of the ‘key’ that completed the spacer sequence. […]

iPE2(+) HEK293T = experiment: Monoclonal lineage tracing, TargetBC-5×TAPE-1 arrays, sc-RNA-seq; conditions: after 25 days of editing, Dox
From the text: The ordered manner in which edits accrue with DNA Typewriter, the use of a prime editor with a Cas9 nickase to insert one of many possible “symbols” at the type-guide, the predefined sequences and locations of potential edits, and the fact that one-and-only-one monomer is an active type-guide at any given moment, have the potential to address all of these limitations at once. […] First, a HEK293T cell line that expresses doxycycline (Dox)-inducible PE2 (iPE2(+) HEK293T) was constructed. A lentiviral construct was designed and cloned that includes: (1) the 5×TAPE-1 sequence, associated with a random 8-bp barcode region (TargetBC) at its 5′-end; (2) a transcription cassette for the TargetBC-5×TAPE-1 with a reverse transcription capture sequence for enrichment during sc-RNA-seq; and (3) a constitutive pegRNA expression cassette that targets TAPE-1 for a 6-bp insertion (NNNGGA; referred to below as InsertBC; GGA is the key sequence for TAPE-1) (FIG. 4A). Lentiviral transduction of this construct to the cell line at a high multiplicity of infection (MOI) was followed by serial dilution to isolate a monoclonal cell line that grew from 1 cell to ˜1.2M cells via ˜20 doublings over 25 days in the presence of Dox (FIG. 4B; FIG. 10A). After harvesting, sc-RNA-seq was used to recover and sequence multiple TargetBC-5×TAPE-1 arrays from each of ˜12,000 cells. […]

[3] = 5-bp insertions, conditional on site activated, per replicate, listed as 3xTAPE-1
[4] = 5-bp insertions, conditional on site activated, per replicate, listed as 5xTAPE-1
[5] = 6-bp ins., per replicate, listed as 5xTAPE-1

Molecule: TAPE-27: DNA Tape design, FANCF-based spacer, SEQ ID NO: 32 (DNA GAGATCCGGTCTGCAGCATCCGGTCTGCAGC; listed as DNA, chemistry not fully specified; the letters are possibly those of the target site)
- Greater efficiency than TAPE-1 (HEK293T cells [1]; 3×TAPE): over 50%
- Greater sequential error rate than TAPE-1 (HEK293T cells [1]; 3×TAPE): 2 fold

Molecule: TAPE-1: DNA Tape: 3-bp key GGA and tandem array of 14-bp monomer TGATGGTGAGCACG, from HEK3; SEQ ID NO: 2 (DNA GGATGATGGTGAGCACGTGATGGTGAGCACG; listed as DNA, chemistry not fully specified; the letters are possibly those of the target site)
- Editing rate of the first TAPE-1 monomer (HEK293T cells [2]; PE2 and pegRNAs): ~6%
- Editing rates of the second or third monomers, conditional on preceding monomers already edited (HEK293T cells [2]; PE2 and pegRNAs): ~20%
- Sequential error rate (in words) (HEK293T cells [1]): one of the lowest sequential error rates among the 48 tested tapes
- Fifth sites edited (mean) (iPE2(+) HEK293T): 19.7%
- First sites of active arrays edited (mean) (iPE2(+) HEK293T): 96.8%

Molecule: 3×TAPE-1: TAPE-1 array with three monomers, SEQ ID NO: 59 (DNA GGATGATGGTGAGCACGTGATGGTGAGCACGTGATGGTGAGCACGTGATGGTGAGC; listed as DNA, chemistry not fully specified; the letters are possibly those of the target site)
- Reads edited at the second monomer that were also edited at the first monomer (HEK293T cells [2]): 98.5%
- Reads edited at the third monomer that were also edited at the first and second monomers (HEK293T cells [2]): 97.6%
- Editing efficiencies: Site 2 (HEK293T cells [2]; [3]): 0.237 and 0.231 and 0.240
- Editing efficiencies: Site 3 (HEK293T cells [2]; [3]): 0.170 and 0.189 and 0.221
- Editing efficiencies: Site 1 (HEK293T cells [2]; 5-bp insertions, fraction of reads edited at the site over reads in which the site was activated, per transfection replicate, listed as 3xTAPE-1): 0.059 and 0.051 and 0.047
- Overall editing rate: reads exhibiting any editing, of all reads (HEK293T cells [2]): 5.2±0.6%

Molecule: 2×TAPE-1: TAPE-1 array with two monomers, SEQ ID NO: 58 (DNA GGATGATGGTGAGCACGTGATGGTGAGCACGTGATGGTGAGC; listed as DNA, chemistry not fully specified; the letters are possibly those of the target site)
- Second monomer edited, in reads in which the first monomer was also edited (HEK293T cells [2]): 22.8±1.7%
- Second monomer edited, in reads in which the first monomer was not edited (HEK293T cells [2]): 0.6%
- Editing efficiencies: Site 2 (HEK293T cells [2]; 5-bp insertions, conditional on site activated, per replicate, listed as 2xTAPE-1): 0.211 and 0.244 and 0.229
- Editing efficiencies: Site 1 (HEK293T cells [2]; 5-bp insertions, fraction of reads edited at the site over reads in which the site was activated, per transfection replicate, listed as 2xTAPE-1): 0.053 and 0.044 and 0.043
- Overall editing rate: reads exhibiting any editing, of all reads (HEK293T cells [2]): 4.7±0.5%

Molecule: TAPE-6: DNA Tape design from HEK3 with 4-bp key, SEQ ID NO: 7 (DNA GGACTGATGGTGAGACGTGATGGTGAGACG; listed as DNA, chemistry not fully specified; the letters are possibly those of the target site)
- Sequential error rate (in words) (HEK293T cells [1]): lower sequential error rate than TAPE-1

B1: 5×TAPE-1: TAPE-1 array with five monomers, SEQ ID NO: 60 (nucleic acid)
DNA: GGATGATGGTGAGCACGTGATGGTGAGCACGTGATGGTGAGCACGTGATGGTGAGCACGTGATGGTGAGCACGTGATGGTGAGC
modifications: listed as DNA, chemistry not fully specified; the letters are possibly those of the target site
- Reads edited at the second monomer that were also edited at the first monomer (HEK293T cells [2]): 99.0%
- Reads edited at the third monomer that were also edited at the first and second monomers (HEK293T cells [2]): 98.8%
- Editing efficiencies: Site 2 (HEK293T cells [2]; [4]): 0.210 and 0.212 and 0.206
- Editing efficiencies: Site 3 (HEK293T cells [2]; [4]): 0.151 and 0.144 and 0.154
- Editing efficiencies: Site 4 (HEK293T cells [2]; [4]): 0.129 and 0.119 and 0.150
- Editing efficiencies: Site 5 (HEK293T cells [2]; [4]): 0.098 and 0.194 and 0.175
- Editing efficiencies: Site 1 (HEK293T cells [2]; 5-bp insertions, fraction of reads edited at the site over reads in which the site was activated, per transfection replicate, listed as 5xTAPE-1): 0.066 and 0.059 and 0.051
- Editing efficiencies: Site 1 (HEK293T cells [2]; [5]): 0.055 (2×) and 0.057
- Editing efficiencies: Site 2 (HEK293T cells [2]; [5]): 0.180 and 0.177 and 0.181
- Editing efficiencies: Site 3 (HEK293T cells [2]; [5]): 0.083 and 0.078 and 0.089
- Editing efficiencies: Site 4 (HEK293T cells [2]; [5]): 0.099 and 0.059 and 0.265
- Editing efficiencies: Site 5 (HEK293T cells [2]; [5]): 0.364 and 0.900 and 0.000
- Overall editing rate: reads exhibiting any editing, of all reads (HEK293T cells [2]): 5.9±0.8%
